This passage reports CC50 results from ChEMBL document CHEMBL1136580, “Enterolosaponins A and B, novel triterpene bisdesmosides from Enterolobium contortisiliquum, and evaluation for their macrophage-oriented cytotoxic activity” (Bioorg Med Chem Lett, 2003).

Where only a bound is given, the exact number is not on record here.

The nature of this data set: Compound was tested for its cytotoxic activity against BACI.2F5 mouse macrophages. Conditions: read-out: LD50 (the source's name).

For the compound `CC(=O)N[C@@H]1[C@H](O[C@H]2CC[C@]3(C)[C@H]4CC=C5[C@@H]6CC(C)(C)[C@@H](OC(=O)/C=C/c7ccccc7)C[C@]6(C(=O)O[C@@H]6O[C@@H](CO)[C@@H](O)[C@H](O)[C@@H]6O[C@@H]6O[C@@H](C)[C@H](O[C@@H]7O[C@@H](CO)[C@H](O)[C@H]7O)[C@H](O[C@@H]7O[C@@H](CO)[C@@H](O)[C@H](O)[C@@H]7O)[C@H]6O)CC[C@@]5(C)[C@]4(C)CC[C@H]3C2(C)C)O[C@@H](CO[C@@H]2OC[C@H](O)[C@@H](O)[C@@H]2O[C@@H]2OC[C@@H](O)[C@H](O)[C@@H]2O)[C@@H](O)[C@@H]1O`, the CC50 was not above 3000 nM.
